Laboratory results from ChEMBL document CHEMBL1141994, “Identification of an agonist ligand for estrogen-related receptors ERRbeta/gamma” (Bioorg Med Chem Lett, 2005).

Legend:
Assay type in all cases: functional
[1] = biological target: T1, Steroid hormone receptor ERR2 (Homo sapiens) (UniProt O95718); assay: Fold activation of estrogen-related receptor beta at 100 nM in cell-based reporter gene assay
T1 sequence (whole entry): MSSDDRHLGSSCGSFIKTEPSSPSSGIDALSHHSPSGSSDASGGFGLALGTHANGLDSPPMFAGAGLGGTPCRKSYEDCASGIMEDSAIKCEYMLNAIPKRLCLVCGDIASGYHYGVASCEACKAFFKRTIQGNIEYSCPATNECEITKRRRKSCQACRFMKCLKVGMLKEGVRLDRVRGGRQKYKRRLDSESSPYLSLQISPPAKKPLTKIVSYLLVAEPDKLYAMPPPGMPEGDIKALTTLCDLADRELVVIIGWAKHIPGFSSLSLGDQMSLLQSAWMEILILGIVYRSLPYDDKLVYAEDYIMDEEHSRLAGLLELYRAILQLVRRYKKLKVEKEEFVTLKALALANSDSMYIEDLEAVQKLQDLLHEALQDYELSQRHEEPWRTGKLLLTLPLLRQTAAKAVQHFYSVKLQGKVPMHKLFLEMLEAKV

[2] = biological target: T2, Steroid hormone receptor ERR1 (Homo sapiens) (UniProt P11474); assay: Fold activation of estrogen-related receptor alpha at 100 nM in cell-based reporter gene assay
T2 sequence (whole entry): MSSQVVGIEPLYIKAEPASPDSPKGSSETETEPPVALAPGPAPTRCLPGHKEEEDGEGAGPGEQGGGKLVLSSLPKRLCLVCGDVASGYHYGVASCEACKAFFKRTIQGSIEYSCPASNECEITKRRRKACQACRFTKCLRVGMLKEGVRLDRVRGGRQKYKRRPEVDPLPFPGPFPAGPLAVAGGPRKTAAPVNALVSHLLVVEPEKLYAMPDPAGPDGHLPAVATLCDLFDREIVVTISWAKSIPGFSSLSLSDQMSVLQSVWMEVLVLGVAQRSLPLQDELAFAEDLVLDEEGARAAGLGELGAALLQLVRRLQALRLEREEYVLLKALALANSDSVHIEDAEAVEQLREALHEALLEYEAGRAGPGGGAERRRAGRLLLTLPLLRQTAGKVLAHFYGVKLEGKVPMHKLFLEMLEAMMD

[3] = biological target: T3, Estrogen-related receptor gamma (Homo sapiens) (UniProt P62508); assay: Fold activation of estrogen-related receptor gamma at 100 nM in cell-based reporter gene assay
T3 sequence (whole entry): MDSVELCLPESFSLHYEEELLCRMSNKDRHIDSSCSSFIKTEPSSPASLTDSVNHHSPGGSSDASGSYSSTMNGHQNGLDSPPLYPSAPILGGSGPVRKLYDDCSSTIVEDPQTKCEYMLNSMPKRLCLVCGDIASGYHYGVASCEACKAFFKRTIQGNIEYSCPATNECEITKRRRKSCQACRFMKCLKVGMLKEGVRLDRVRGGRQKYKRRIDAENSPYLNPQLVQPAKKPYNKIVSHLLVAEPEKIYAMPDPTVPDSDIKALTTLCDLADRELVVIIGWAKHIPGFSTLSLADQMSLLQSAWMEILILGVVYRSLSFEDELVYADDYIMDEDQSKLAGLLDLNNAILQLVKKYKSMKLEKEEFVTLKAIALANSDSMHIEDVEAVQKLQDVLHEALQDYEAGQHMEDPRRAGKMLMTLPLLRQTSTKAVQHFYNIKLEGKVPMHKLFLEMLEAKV

Activity [1]: 1 | Activity [2]: 1.1 | Activity [3]: 0.8
Structure (SMILES): C[C@]12CC[C@@H]3c4ccc(O)cc4CC[C@H]3[C@@H]1CC[C@@H]2O
